Data as given in patent US6680295B1, “Method and pharmaceutical composition for prevention and treatment of brain damage” (priority 1994, dated 2004).
No end group written: not given here.

What was measured:
[1] = molecular target: T1, PACAP binding sites in rat brain membrane preparations (Rattus norvegicus, UniProt P32215); assay: Radioreceptor assay: displacement of 125I-PACAP27 binding to E18 rat brain membranes; conditions: for displacement of 125I-PACAP27 binding: unlabeled peptide
T1 construct: from tissue; host or cells: rat brain membrane preparations (E18 whole brain; other ages and regions also dissected)
T1 sequence (P32215 20-523): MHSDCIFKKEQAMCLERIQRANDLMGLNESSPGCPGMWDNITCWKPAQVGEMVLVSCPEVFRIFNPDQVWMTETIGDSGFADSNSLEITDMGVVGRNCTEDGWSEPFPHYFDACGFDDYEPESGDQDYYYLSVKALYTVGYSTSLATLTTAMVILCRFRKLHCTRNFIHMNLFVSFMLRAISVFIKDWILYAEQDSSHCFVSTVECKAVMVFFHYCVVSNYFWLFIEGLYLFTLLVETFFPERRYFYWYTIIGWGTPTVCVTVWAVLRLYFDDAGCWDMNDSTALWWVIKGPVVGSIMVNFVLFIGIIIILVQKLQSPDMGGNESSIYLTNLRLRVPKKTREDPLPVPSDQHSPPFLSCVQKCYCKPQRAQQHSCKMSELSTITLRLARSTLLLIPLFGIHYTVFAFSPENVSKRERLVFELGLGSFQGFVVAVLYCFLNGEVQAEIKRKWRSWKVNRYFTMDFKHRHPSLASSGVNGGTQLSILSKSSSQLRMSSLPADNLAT
From the text: Male CD rats (Charles River Breeding Labs., Wilmington, Mass.) were used throughout this example. The following regions of the brain were dissected at the indicated ages: embryonic day E14 (whole brain); E18 (whole brain, neocortex, hippocampus, and diencephalon); postnatal days P0, P7 and P14 (whole brain, neocortex, hippocampus, diencephalon, and cerebellum); and 1-, 2- and 3-months old (MO) (whole brain, neocortex, hippocampus, diencephalon, and cerebellum). After dissection, each region was immediately frozen on dry-ice and stored at −70 C. for up to 2 months until the receptor and peptide levels were determined. […] Arimura, et al., Endocrinology 129: 2787-2789 (1991). […] Gottschall, et al., Endocrinology 127: 272-277 (1990), and Gottschall, et al., FASEB J 5: 194-199 (1991).
Gottschall, et al., Endocrinology 127: 272-277 (1990) and Gottschall, et al., FASEB J 5: 194-199.

[2] = system: cultured rat astrocytes, intracellular cAMP; assay: cAMP response in cultured rat astrocytes (RIA); type: cell-based; conditions: astrocyte cultures
Experimental: Astrocytes cultures were prepared from brain of neonatal rats. Astrocytes were allowed to proliferate for 7-10 days before experiments.
(§1) Yada, et al., J. Biol. Chem. 269: 1290-1293 (1994).

Type I PACAP receptor = molecular target: T2, Type I PACAP receptor (Homo sapiens, UniProt P41586); conditions: cited from earlier work
T2 sequence (P41586 21-468): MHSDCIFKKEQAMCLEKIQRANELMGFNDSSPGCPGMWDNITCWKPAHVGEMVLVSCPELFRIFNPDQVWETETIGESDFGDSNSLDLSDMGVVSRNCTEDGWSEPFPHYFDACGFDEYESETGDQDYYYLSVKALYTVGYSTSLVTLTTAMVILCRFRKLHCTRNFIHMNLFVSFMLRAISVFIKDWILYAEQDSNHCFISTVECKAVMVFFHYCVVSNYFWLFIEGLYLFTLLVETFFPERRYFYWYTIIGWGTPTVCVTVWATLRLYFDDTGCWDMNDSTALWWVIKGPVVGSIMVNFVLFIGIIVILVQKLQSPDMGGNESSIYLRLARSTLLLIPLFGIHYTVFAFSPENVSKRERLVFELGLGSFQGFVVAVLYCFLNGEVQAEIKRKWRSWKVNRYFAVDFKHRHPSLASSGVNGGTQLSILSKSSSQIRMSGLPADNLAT

CNS cultures, cAMP = assay: cAMP in CNS cultures at the peptide concentrations that increase neuronal survival; type: cell-based; conditions: 0.1 nM, any CNS culture system
[3] = system: dissociated hippocampal cultures; conditions: cited from earlier work
[4] = system: cultured rat neurons, intracellular cAMP; assay: cAMP response in cultured rat neurons (RIA); type: cell-based; conditions: neuron cultures
Experimental: Neuron cultures were prepared from brains of 1 day-old rats. 1×10^7 cells were plated in each dish (35 mm diameter).
as §1

hippocampal CA1 neurons [5] = assay: Forebrain ischemia, hippocampal CA1 neuronal cell death, iv infusion started immediately after ischemia; type: in vivo, rat
Experimental: (§2) The clips were removed 15 minutes later. […] The incision wound was closed.
PACAP38 was administered i.v. to rats (see example 5) over one week, starting immediately after ischemia/reperfusion. […] In this experiment, 20 μg/kg (approximately 4 nmol/kg) was given as a bolus iv injection before the infusion began.

[6] = system: dorsomedial population of dorsal root ganglia (DRG18); assay: Natural neuronal cell death in dorsal root ganglion DRG18 of chick embryo; conditions: 25 nM in the egg daily E3 1/2 to E8 1/2, counted on E9, p<0.01
Experimental: The control group received vehicle and the experimental group received PACAP38 (25 nM in the egg) daily from E3 ½ to E8 ½. Number is the mean of the numbers of degenerating cells in 6 ganglia in each group. Bar indicates SEM.
Effect of PACAP on natural neuronal cell death was also examined in chick embryos using similar experimental procedures described by Hamburger and Montalcini. […] Fertilized White Leghorn eggs (Troslow Farms) were incubated at 39 C. at 99% humidity. A small hole was opened at the top of the egg on E3 ½ (Stage 23) by punching with micro-dissecting tweezers. One μl/g of egg weight of sterile Tyrode solution or solution containing 5 μM or 25 μM PACAP38 was administered daily through the hole onto the highly vascularized chorioallantoic membrane from day E3 ½ through E8 ½ in the experiment for dorsal root ganglion (DRG), and from E6 through E9 for lumbar motor column (LMC). […]
The magnification used (×400), one can observe DRG18 divided into two populations of cells: large differentiating ventrolateral (VL) and small, late differentiating dorsomedial (DM) cells. […] Macrophages containing debris of several cells were encountered rarely and counted as two degenerating cells. Every second section of the ganglia was counted, and the sum multiplied by two to obtain a data point. A total of 6 ganglia were counted in each of the control and experimental groups, respectively.

hippocampal CA1 neurons [7] = assay: Forebrain ischemia, hippocampal CA1 neuronal cell death, iv infusion started 24 hrs after ischemia; type: in vivo, rat; conditions: bolus and infusion started 24 hrs after ischemia
Experimental: FIG. 18 is a graph showing the cytoprotective effect of iv infusion of PACAP38 which started 24 hrs. after ischemia in rats.
as §2
Neuronal cell death in CA1 induced by forebrain ischemia progresses slowly. One day after ischemia/reperfusion many viable neurons were still seen in CA1. However, nearly all neurons died one week after ischemia. Therefore, if the administration of PACAP38 is started 24 hrs after ischemia, the treatment could possibly still prevent the slow death of the neurons. To test this hypothesis, a bolus iv injection and subsequent iv infusion of PACAP38 was started 24 hrs after ischemia.

[8] = system: dissociated hippocampal cultures; assay: Prevention of gp120-induced neuronal cell death in dissociated hippocampal cultures; type: cell-based, mice; conditions: 1 pM gp120, five days
Experimental: The cultures were prepared from 16-17 day-old mice embryos (C57B1/6) as previously described. Brenneman, et al., Nature 335: 639-642 (1988). Before treatment, the cultures were given a complete change of medium. […] Cell counts were conducted on 60 fields, 0.12 mm^2 each. Neurons were identified immunocytochemically using antiserum against neuron specific enolase. Schmechel, et al., Nature 276: 834-836 (1978). Each value is the mean of 3-5 dishes.
Brenneman, et al. Nature 335: 639-642 (1988). […] Brenneman, et al. Nature 335: 639-642 (1988). […] Arimura, et al., Trends Endocr. Metab. 3: 288-294 (1993). Arimura et al., Ann NY Acad. Sci. 739:228-243 (1994).

[9] = system: motoneurons in the lateral motor column (LMC); assay: Survival of motoneurons in lumbar lateral motor column of chick embryo
Experimental: Embryos received vehicle, or 5 nM or 25 nM PACAP (concentrations in the egg after injection) daily from E6 to E9. Average LMC is represented by 320-340 sections and cell counts were made on every tenth section. Sum of live cells in all counted sections multiplied by 10 is shown in this figure. Numbers indicate mean numbers of live cells in 6 LMC in each group. Bars indicate SME.
Effect of PACAP on natural neuronal cell death was also examined in chick embryos using similar experimental procedures described by Hamburger and Montalcini. […] Fertilized White Leghorn eggs (Troslow Farms) were incubated at 39 C. at 99% humidity. A small hole was opened at the top of the egg on E3 ½ (Stage 23) by punching with micro-dissecting tweezers. […]
In the lumbar motor column (LMC), intact motoneurons were easily distinguishable from surrounding cells due to their large size and deeply stained perikaryon. Only those neurons with an intact nuclear membrane and at least one visible nucleolus were counted as live cells. Every tenth section of the LMC was counted, and the sum of the sections multiplied by ten to obtain a data point. A total of 6 motor columns was counted in each of the control and experimental groups.

hippocampal CA1 neurons [10] = assay: Forebrain ischemia/reperfusion (four vessel occlusion), hippocampal CA1 neuronal cell death, icv administration
Experimental: Each column indicates viable cell number 7 days after 15 min ischemia of the forebrain of rats which were intracerebroventricularly administered the vehicle alone or the vehicle containing varying amounts of PACAP38. The numbers of cells are expressed by percentages of live cells as compared with the cells in the same area of the intact rat hippocampus. […] FIGS. 13A-F are microphotographs of coronal sections of the right hippocampal CA1 from intact rats and rats subjected to forebrain ischemia for 15 min. The sections were stained with cresyl violet (A, B, C) and immunostained for MAPII (D, E, F). A, D: Intact rats. B, E: 7 days after ischemia in vehicle-infused (icv) rats. […] PACAP38 administration started immediately after ischemia.
Adult male rats of CD strain weighing 270-300 g body weight (Charles River Breeding labs, Wilmington, Miss.) were used. Under Ketamine anesthesia, the bilateral vertebrate arteries were permanently occluded at the first cervical vertebra by electrocoagulation. Bilateral carotid arteries were exposed and a loop of silicon rubber tubing was placed around each carotid artery, leaving the end of the tubing outside the suture. The animal was left in the laboratory with water, but without food. The following morning, both loops around the carotid arteries were pulled and artery clips were applied on the loops at the portion close to the skin so that both carotid arteries were occluded and ischemia of the brain occurred as long as the clips remained. The clips were removed 15 minutes later. During ischemia, body temperature was monitored by thermometer placed in the rectum and the body temperature was maintained at 37° C. by radiation heat from light bulb. […] Reperfusion of bilateral carotid arteries was assured by direct visual examination. The incision wound was closed.
Soon after the reperfusion of the carotid arteries began, the animal was placed on a stereotaxic instrument, the skull was exposed, and a small hole was made by a dental drill at anterior 0.6 lateral 1.5, vertical 5.0 mm from the bregma and skull surface, and guided cannula (Alza Corp., Palo Alto, Calif.) was inserted into the hole so that the tip of the cannula is in the lateral cerebroventricle and fixed on the skull by dental cement. The incised skin was then closed by suture. Then 10 μl of artificial cerebrospinal fluid (CSF) containing 0.1% bovine serum albumin (ESA) or the vehicle containing varying amounts of PACAP38 was introduced.
PACAP38 was icv infused into the right lateral cerebroventricle of rats having neuronal cell damage in the CA1 of the hippocampus as discussed in example 5. The effect of the icv infusion of PACAP38 on ischemia-induced neuronal cell death in the hippocampal CA1 in rats was measured.

[11] = rat, in vivo
Experimental: FIG. 15 is a graph showing ^125I -PACAP 38 levels in brain tissue 10 minutes after icv injection, at 1×10^6 cpm ^125I-PACAP38.
This calculation was based on the transport of ^125I-labelled peptide given icv as a bolus but slow injection over 5 min. 1×10^6 cpm ^125I-PACAP38 was injected icv in anesthetized rats, the cpm in the brain tissues 10 min after the injection is shown in FIG. 15.
The labelled peptide was injected into the right lateral ventricle.

[12] = molecular target: T3, PACAP receptor (PACAP binding sites) in rat brain membrane preparations (rat, UniProt P32215 20-523); assay: Scatchard analysis of displacement of 125I-PACAP27, E18 rat brain membranes; reference PACAP27
T3 construct: whole, on cells; Native receptor in crude brain membranes, not a recombinant protein; also called the receptor
T3 sequence (looked up): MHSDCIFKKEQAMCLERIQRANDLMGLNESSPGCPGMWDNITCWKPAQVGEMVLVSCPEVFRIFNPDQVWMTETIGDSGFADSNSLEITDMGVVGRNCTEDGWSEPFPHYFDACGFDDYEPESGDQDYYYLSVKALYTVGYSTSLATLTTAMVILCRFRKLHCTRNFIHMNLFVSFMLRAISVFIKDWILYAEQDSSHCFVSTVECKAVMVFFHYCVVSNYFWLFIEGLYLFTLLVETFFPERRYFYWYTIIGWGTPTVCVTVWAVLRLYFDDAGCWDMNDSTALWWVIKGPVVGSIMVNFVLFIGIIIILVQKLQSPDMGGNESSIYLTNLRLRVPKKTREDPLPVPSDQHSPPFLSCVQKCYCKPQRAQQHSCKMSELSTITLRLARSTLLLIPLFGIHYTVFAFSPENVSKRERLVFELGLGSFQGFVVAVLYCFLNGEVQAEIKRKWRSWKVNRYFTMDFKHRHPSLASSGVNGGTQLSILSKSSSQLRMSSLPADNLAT

Question: For “secretin: structurally related peptide used in binding competition”, which “displacement of 125I-PACAP27 binding” value [1] is on record?
Answer: did not displace

Question: With VIP: vasoactive intestinal peptide as the molecule, how does the “potency in increasing cellular cAMP, times less potent than PACAP” value [2] read?
Answer: approximately 1000 times

Question: What about the “affinity for Type I PACAP receptor, times less than that of PACAP” value (Type I PACAP receptor) of the same molecule?
Answer: 1000 times

Question: What about the “binding to Type I PACAP receptor” value (Type I PACAP receptor) of the same molecule?
Answer: do not bind

Question: And the “cAMP response at the concentration that increases neuronal survival” value (CNS cultures, cAMP)?
Answer: no increases in cAMP

Question: And the “effect on neuronal death in gp120-treated cultures” value ([3]; 0.1 nM)?
Answer: prevented neuronal death

Question: And the “effect on neuronal cell death associated with gp120 treatment” value ([3]; murine hippocampal cultures)?
Answer: potently and completely prevented

Question: What about the “potency in increasing cellular cAMP, times less potent than PACAP” value [4] of the same molecule?
Answer: approximately 1000 times

Question: What about the “displacement of 125I-PACAP27 binding” value [1] of the same molecule?
Answer: did not displace

Question: With “GHRH: structurally related peptide used in binding competition” as the molecule, how does the “displacement of 125I-PACAP27 binding” value [1] read?
Answer: did not displace

Question: For PACAP[1-38]-NH2 [PACAP38], which “effect on ischemia-induced neuronal cell death in CA1” value (hippocampal CA1 neurons [5]; iv 16 pmol/hr over one week after 20 μg/kg iv bolus) is on record?
Answer: attenuated neuronal cell death significantly

Question: What about the “effect on ischemia-induced neuronal cell death in CA1” value (hippocampal CA1 neurons [5]; iv 160 pmol/hr over one week after 20 μg/kg iv bolus) of the same molecule?
Answer: attenuated neuronal cell death significantly

Question: And the “number of degenerating cells less than in untreated embryos” value [6]?
Answer: 37.2%

Question: And the “effect on ischemia-induced neuronal cell death in CA1” value (hippocampal CA1 neurons [7]; iv 16 pmol/hr)?
Answer: significantly (<0.01) attenuated brain cell death

Question: And the “effect on ischemia-induced neuronal cell death in CA1” value (hippocampal CA1 neurons [7]; iv 160 pmol/hr)?
Answer: significantly (<0.01) attenuated brain cell death

Question: And the “lower peak of bimodal dose-response curve of cytoprotection” value [8]?
Answer: 0.1 pM

Question: And the “upper peak of bimodal dose-response curve of cytoprotection” value [8]?
Answer: 0.1 nM

Question: What about the “increase in number of motoneurons per motor column” value ([9]; 5 nM in the egg daily E6 to E9, counted on E10) of the same molecule?
Answer: 7.2%

Question: And the “increase in number of motoneurons per motor column” value ([9]; 25 nM in the egg daily E6 to E9, counted on E10)?
Answer: 12.5%

Question: What about the “affinity for the receptor relative to PACAP27 (higher)” value [1] of the same molecule?
Answer: about 10 fold

Question: What about the “displacement of 125I-PACAP27 binding” value [1] of the same molecule?
Answer: more effectively than did PACAP27

Question: And the “most effective continuous icv infusion rate” value (hippocampal CA1 neurons [10]; after bolus 450 ng/10 μl H2O over 10 min, infusion over seven days, FIG. 12)?
Answer: 45 ng/µL/h

Question: And the “icv dose of maximum cytoprotective effect (bell-shaped dose-response)” value (hippocampal CA1 neurons [10]; icv infusion into right lateral cerebroventricle over one week, FIG. 16)?
Answer: 1 pmol/h

Question: What about the “effect on ischemia-induced neuronal cell death in CA1” value (hippocampal CA1 neurons [10]; icv infusion over one week, viable neurons 7 days after ischemia) of the same molecule?
Answer: significantly prevented the neuronal cell death

Question: What about the “effect on ischemia-induced cell death in CA1 (histology)” value (hippocampal CA1 neurons [10]; icv osmotic pump 1 pmol/h over one week, started immediately after ischemia, 7 days) of the same molecule?
Answer: prevented ischemia-induced cell death in CA1

Question: What about the “most effective icv dose” value (hippocampal CA1 neurons [10]; icv over 7 days, 10, 1, 0.1 and 0.01 pmol/h tested, FIG. 14) of the same molecule?
Answer: 1 pmol/h

Question: Which results are given for ^125I-PACAP38?
Answer: CPM in right hippocampus relative to left [11]: four times greater; radioactivity in left hippocampus [11]: 5 cpm per mg tissue; radioactivity in right hippocampus [11]: 20 cpm per mg tissue

Question: For “glucagon: structurally related peptide used in binding competition”, which “displacement of 125I-PACAP27 binding” value [1] is on record?
Answer: did not displace

B1: Pituitary adenylate cyclase activating polypeptide, complete form with 38 amino acids (PACAP38) (peptide)
peptide: HSDGIFTDSYSRYRKQMAVKKYLAAVLGKRYKQRVKNK-NH2
notes: Synthetic peptide made by solid phase synthesis; also called PACAP[1-38]-NH2; unlabeled PACAP38
Question: With B1 as the molecule, how does the “fold higher affinity than PACAP27” value [12] read?
Answer: ~10 fold
